Results published in patent US8410078B2, “Composition and methods to treat cardiac diseases” (University of Connecticut, priority 2006, dated 2013).

System: mouse thoracic aorta ring
Assay: Vascular reactivity of phenylephrine-preconstricted thoracic aorta rings
Conditions: pre-constricted with phenylephrine, 10^−9 to 10^−5 M
Experimental: Thoracic aortas were quickly removed from 8 to 10-week wild type (C57 BL6) mice, cut into 3 mm rings. After pre-constriction with phenylephrine (1 μM), increasing concentrations of acetylcholine or MRS2339 were added in a cumulative fashion to achieve a concentration-response curve. The % relaxation was determined as % decrease in ring tension (gram) compared to the tension before the addition of acetylcholine or MRS2339. Data were shown as mean±SEM.

Nc1nc(Cl)nc2c1ncn2C1[C@H]2C[C@@]2(COP(=O)(O)O)[C@@H](O)[C@H]1O (stereo partly drawn) [MRS2339, (1′S,2′R,3′S,4′R,5′S)-4-(6-amino-2-chloro-9H-purin-9-yl)-1-[phosphoryloxymethyl]bicyclo[3.1.0]hexane-2,3-diol]
Relaxation of aorta ring segments: did not induce relaxation
